Data from article PMC3048208 (British Journal of Cancer, 2011).
Where a name gives a salt, the structure may show the parent alone. Marks after values point to notes of the source that are not given here.

Test system: patients with advanced solid tumours
Assay: Phase I safety: DLT and adverse events (CTCAE v3.0)
[1] = All grades, level 1, 10 mg 3 days every 2 weeks, 3 patients
[2] = All grades, level 2, 10 mg, 6 patients
[3] = All grades, level 3, 20 mg, 6 patients
[4] = All grades, level 4, 30 mg, 4 patients
[5] = All grades, level 5, 50 mg, 4 patients
[6] = All grades, level 5.5, 60 mg, 7 patients
[7] = All grades, level 6, 70 mg, 6 patients
[8] = All grades, level 7, 90 mg, 2 patients
[9] = Grades 3/4, level 1, 10 mg 3 days every 2 weeks, 3 patients

CCCCc1nc2cc(/C=C/C(=O)NO)ccc2n1CCN(CC)CC [SB939, 3-[2-butyl-1-(2-diethylaminoethyl)-1H-benzoimidazol-5-yl]-N-hydroxyacrylami-hydrochloride]
Grade 2 raised AST and hyperbilirubinemia, no. of patients (60 mg): 3
Grade 3 ALT rise, no. of patients (60 mg): two
Dose reductions, patients (70 mg): 2 of 6
Dose reductions, patients (90 mg): 2 of 2
ALT (raised), no. of patients [1]: 0
AST (raised), no. of patients [1]: 1
Abdominal pain, no. of patients [1]: 0
Alkaline phophatase (raised), no. of patients [1]: 1
Altered taste, no. of patients [1]: 0
Anaemia, no. of patients [1]: 2
Anorexia, no. of patients [1]: 0
Bilirubin (raised), no. of patients [1]: 0
Cardiac arrythmia other, no. of patients [1]: 0
Cardiac dysfunction, no. of patients [1]: 0
Cardiac ischaemia, no. of patients [1]: 0
Constipation, no. of patients [1]: 0
Creatinine (raised), no. of patients [1]: 0
Diarrhoea, no. of patients [1]: 0
Fatigue, no. of patients [1]: 0
Leukopenia, no. of patients [1]: 1
Lymphopenia, no. of patients [1]: 0
Mucositis, no. of patients [1]: 1
Myositis, no. of patients [1]: 0
Nausea, no. of patients [1]: 0
Neutropenia, no. of patients [1]: 1
QT prolongation, no. of patients [1]: 0
Supra ventricular arrythmia, no. of patients [1]: 0
Syncope, no. of patients [1]: 0
Thrombocytopenia, no. of patients [1]: 0
Ventricular arrythmias (PVCs), no. of patients [1]: 0
Ventricular bigemini, no. of patients [1]: 0
Vomiting, no. of patients [1]: 0
ALT (raised), no. of patients [2]: 1
AST (raised), no. of patients [2]: 3
Abdominal pain, no. of patients [2]: 0
Alkaline phophatase (raised), no. of patients [2]: 5
Altered taste, no. of patients [2]: 0
Anaemia, no. of patients [2]: 6
Anorexia, no. of patients [2]: 0
Bilirubin (raised), no. of patients [2]: 1
CPK, no. of patients [2]: 0
Cardiac arrythmia other, no. of patients [2]: 0
Cardiac dysfunction, no. of patients [2]: 0
Cardiac ischaemia, no. of patients [2]: 0
Constipation, no. of patients [2]: 0
Creatinine (raised), no. of patients [2]: 1
Diarrhoea, no. of patients [2]: 1
Fatigue, no. of patients [2]: 2
Leukopenia, no. of patients [2]: 2
Lymphopenia, no. of patients [2]: 5
Mucositis, no. of patients [2]: 1
Myositis, no. of patients [2]: 0
Nausea, no. of patients [2]: 0
Neutropenia, no. of patients [2]: 1
QT prolongation, no. of patients [2]: 1
Supra ventricular arrythmia, no. of patients [2]: 0
Syncope, no. of patients [2]: 0
Thrombocytopenia, no. of patients [2]: 2
Ventricular arrythmias (PVCs), no. of patients [2]: 1 ^c
Ventricular bigemini, no. of patients [2]: 1 ^c
Vomiting, no. of patients [2]: 0
ALT (raised), no. of patients [3]: 2
AST (raised), no. of patients [3]: 3
Abdominal pain, no. of patients [3]: 0
Alkaline phophatase (raised), no. of patients [3]: 4
Altered taste, no. of patients [3]: 1
Anaemia, no. of patients [3]: 5
Anorexia, no. of patients [3]: 2
Bilirubin (raised), no. of patients [3]: 1
CPK, no. of patients [3]: 1
Cardiac arrythmia other, no. of patients [3]: 0
Cardiac dysfunction, no. of patients [3]: 0
Cardiac ischaemia, no. of patients [3]: 0
Constipation, no. of patients [3]: 0
Creatinine (raised), no. of patients [3]: 1
Diarrhoea, no. of patients [3]: 1
Fatigue, no. of patients [3]: 2
Leukopenia, no. of patients [3]: 1
Lymphopenia, no. of patients [3]: 2
Mucositis, no. of patients [3]: 0
Myositis, no. of patients [3]: 1
Nausea, no. of patients [3]: 2
Neutropenia, no. of patients [3]: 1
QT prolongation, no. of patients [3]: 0
Supra ventricular arrythmia, no. of patients [3]: 0
Syncope, no. of patients [3]: 1
Thrombocytopenia, no. of patients [3]: 1
Ventricular arrythmias (PVCs), no. of patients [3]: 0
Ventricular bigemini, no. of patients [3]: 0
Vomiting, no. of patients [3]: 1
ALT (raised), no. of patients [4]: 2
AST (raised), no. of patients [4]: 1
Abdominal pain, no. of patients [4]: 0
Alkaline phophatase (raised), no. of patients [4]: 2
Altered taste, no. of patients [4]: 0
Anaemia, no. of patients [4]: 4
Anorexia, no. of patients [4]: 0
Bilirubin (raised), no. of patients [4]: 1
CPK, no. of patients [4]: 1
Cardiac arrythmia other, no. of patients [4]: 0
Cardiac dysfunction, no. of patients [4]: 0
Cardiac ischaemia, no. of patients [4]: 0
Constipation, no. of patients [4]: 0
Creatinine (raised), no. of patients [4]: 2
Diarrhoea, no. of patients [4]: 1
Fatigue, no. of patients [4]: 1
Leukopenia, no. of patients [4]: 2
Lymphopenia, no. of patients [4]: 2
Mucositis, no. of patients [4]: 0
Myositis, no. of patients [4]: 0
Nausea, no. of patients [4]: 0
Neutropenia, no. of patients [4]: 2
QT prolongation, no. of patients [4]: 0
Supra ventricular arrythmia, no. of patients [4]: 0
Syncope, no. of patients [4]: 0
Thrombocytopenia, no. of patients [4]: 0
Ventricular arrythmias (PVCs), no. of patients [4]: 0
Ventricular bigemini, no. of patients [4]: 0
Vomiting, no. of patients [4]: 0
ALT (raised), no. of patients [5]: 0
AST (raised), no. of patients [5]: 2
Abdominal pain, no. of patients [5]: 0
Alkaline phophatase (raised), no. of patients [5]: 2
Altered taste, no. of patients [5]: 0
Anaemia, no. of patients [5]: 4
Anorexia, no. of patients [5]: 1
Bilirubin (raised), no. of patients [5]: 0
CPK, no. of patients [5]: 0
Cardiac arrythmia other, no. of patients [5]: 0
Cardiac dysfunction, no. of patients [5]: 0
Cardiac ischaemia, no. of patients [5]: 0
Constipation, no. of patients [5]: 0
Creatinine (raised), no. of patients [5]: 0
Diarrhoea, no. of patients [5]: 0
Fatigue, no. of patients [5]: 3
Leukopenia, no. of patients [5]: 1
Lymphopenia, no. of patients [5]: 4
Mucositis, no. of patients [5]: 0
Myositis, no. of patients [5]: 0
Nausea, no. of patients [5]: 2
Neutropenia, no. of patients [5]: 1
QT prolongation, no. of patients [5]: 0
Supra ventricular arrythmia, no. of patients [5]: 0
Syncope, no. of patients [5]: 0
Thrombocytopenia, no. of patients [5]: 0
Ventricular arrythmias (PVCs), no. of patients [5]: 0
Ventricular bigemini, no. of patients [5]: 0
Vomiting, no. of patients [5]: 2
ALT (raised), no. of patients [6]: 4
AST (raised), no. of patients [6]: 5
Abdominal pain, no. of patients [6]: 0
Alkaline phophatase (raised), no. of patients [6]: 6
Altered taste, no. of patients [6]: 1
Anaemia, no. of patients [6]: 7
Anorexia, no. of patients [6]: 4
Bilirubin (raised), no. of patients [6]: 2
CPK, no. of patients [6]: 0
Cardiac arrythmia other, no. of patients [6]: 1
Cardiac dysfunction, no. of patients [6]: 0
Cardiac ischaemia, no. of patients [6]: 0
Constipation, no. of patients [6]: 0
Creatinine (raised), no. of patients [6]: 2
Diarrhoea, no. of patients [6]: 4
Fatigue, no. of patients [6]: 6
Leukopenia, no. of patients [6]: 5
Lymphopenia, no. of patients [6]: 6
Mucositis, no. of patients [6]: 0
Myositis, no. of patients [6]: 0
Nausea, no. of patients [6]: 5
Neutropenia, no. of patients [6]: 5
QT prolongation, no. of patients [6]: 1
Supra ventricular arrythmia, no. of patients [6]: 0
Syncope, no. of patients [6]: 0
Thrombocytopenia, no. of patients [6]: 5
Ventricular arrythmias (PVCs), no. of patients [6]: 0
Ventricular bigemini, no. of patients [6]: 0
Vomiting, no. of patients [6]: 4
ALT (raised), no. of patients [7]: 1
AST (raised), no. of patients [7]: 2
Abdominal pain, no. of patients [7]: 0
Alkaline phophatase (raised), no. of patients [7]: 3
Altered taste, no. of patients [7]: 0
Anaemia, no. of patients [7]: 6
Anorexia, no. of patients [7]: 3
Bilirubin (raised), no. of patients [7]: 0
CPK, no. of patients [7]: 1
Cardiac arrythmia other, no. of patients [7]: 0
Cardiac dysfunction, no. of patients [7]: 0
Cardiac ischaemia, no. of patients [7]: 0
Constipation, no. of patients [7]: 0
Creatinine (raised), no. of patients [7]: 2
Diarrhoea, no. of patients [7]: 0
Fatigue, no. of patients [7]: 4
Leukopenia, no. of patients [7]: 3
Lymphopenia, no. of patients [7]: 4
Mucositis, no. of patients [7]: 1
Myositis, no. of patients [7]: 0
Nausea, no. of patients [7]: 4
Neutropenia, no. of patients [7]: 3
QT prolongation, no. of patients [7]: 1
Supra ventricular arrythmia, no. of patients [7]: 0
Syncope, no. of patients [7]: 0
Thrombocytopenia, no. of patients [7]: 6
Ventricular arrythmias (PVCs), no. of patients [7]: 0
Ventricular bigemini, no. of patients [7]: 0
Vomiting, no. of patients [7]: 2
ALT (raised), no. of patients [8]: 2
AST (raised), no. of patients [8]: 2
Abdominal pain, no. of patients [8]: 0
Alkaline phophatase (raised), no. of patients [8]: 1
Altered taste, no. of patients [8]: 1
Anaemia, no. of patients [8]: 2
Anorexia, no. of patients [8]: 1
Bilirubin (raised), no. of patients [8]: 1
CPK, no. of patients [8]: 1
Cardiac arrythmia other, no. of patients [8]: 1
Cardiac dysfunction, no. of patients [8]: 1
Cardiac ischaemia, no. of patients [8]: 1
Constipation, no. of patients [8]: 0
Creatinine (raised), no. of patients [8]: 2
Diarrhoea, no. of patients [8]: 0
Fatigue, no. of patients [8]: 2 ^c
Leukopenia, no. of patients [8]: 1
Lymphopenia, no. of patients [8]: 2
Mucositis, no. of patients [8]: 0
Myositis, no. of patients [8]: 0
Nausea, no. of patients [8]: 2
Neutropenia, no. of patients [8]: 1
QT prolongation, no. of patients [8]: 1
Supra ventricular arrythmia, no. of patients [8]: 1
Syncope, no. of patients [8]: 0
Thrombocytopenia, no. of patients [8]: 2
Ventricular arrythmias (PVCs), no. of patients [8]: 1
Ventricular bigemini, no. of patients [8]: 1
Vomiting, no. of patients [8]: 2 ^c
ALT (raised), no. of patients [9]: 0
AST (raised), no. of patients [9]: 0
Abdominal pain, no. of patients [9]: 0
Alkaline phophatase (raised), no. of patients [9]: 0
Altered taste, no. of patients [9]: 0
Anaemia, no. of patients [9]: 0
Anorexia, no. of patients [9]: 0
Bilirubin (raised), no. of patients [9]: 0
Cardiac arrythmia other, no. of patients [9]: 0
Cardiac dysfunction, no. of patients [9]: 0
Cardiac ischaemia, no. of patients [9]: 0
Constipation, no. of patients [9]: 0
Creatinine (raised), no. of patients [9]: 0
Diarrhoea, no. of patients [9]: 0
Fatigue, no. of patients [9]: 0
Leukopenia, no. of patients [9]: 0
Lymphopenia, no. of patients [9]: 0
Mucositis, no. of patients [9]: 0
